Test results published in article PMC8502442 (Pharmacology Research & Perspectives, 2021).
Like-named read-outs stand apart in the source and are kept apart here.

How the values were obtained:
[1] = Rat pharmacokinetics following an IV single bolus; type: in vivo; details: plasma, 1 mg/kg
[2] = rat microdialysis, brain versus blood; cited from earlier work
[3] = rat, cited from earlier work
[4] = male, Sprague-Dawley, rat, intravenous, n = 3, mean ± SD
parental MDCK cell = parental MDCK cell assay; cited from earlier work
[5] = humans; cited from earlier work
[6] = K puu liver, ratio of unbound liver concentration to unbound blood concentration at steady state
[7] = K puu muscle, ratio of unbound muscle concentration to unbound blood concentration at steady state

Q: What does the source list for `CC12CC3CC(C)(C1)CC(N)(C3)C2` [Memantine, memantine]?
A: Vd [1]: 7.36 ± 1.58 L/kg; clearance [1]: 60.5 ± 9.9 mL/min/kg; half-life [1]: 1.72 ± 0.03 h; reported K puu,brain [2]: 1.80; reported plasma CL ([3]; ref 18, 19, 20, 21, 22, 23): 69 mL/min/kg; plasma CL ([3]; ref 47): about 45 ml/min/kg; renal CL ([3]; ref 47): about 13 ml/min/kg; Kp [4, 6]: 1.56; Kp [4, 7]: 2.13

Q: With `CC1COc2c(N3CCN(C)CC3)c(F)cc3c(=O)c(C(=O)O)cn1c23` (stereo not shown) [Ofloxacin, ofloxacin] as the molecule, how does the “reported plasma CL” value ([3]; ref 20, 26, 36, 37) read?
A: Its value is 27.5 mL/min/kg.

Q: And the “non-renal CL (biliary excretion + metabolism) as share of total CL” value ([3]; ref 36)?
A: Its value is “about 45%”.

Q: What about the “renal CL” value ([3]; ref 36) of the same molecule?
A: The value was “about 15 ml/min/kg”.

Q: And the “renal CL as share of total CL” value ([3]; ref 36)?
A: The value was 55%.

Q: What about the “total CL” value ([3]; ref 36) of the same molecule?
A: Its value is 27.5 mL/min/kg.

Q: What about the Kp [4, 6] of the same molecule?
A: Its Kp is ~0.501.

Q: What about the Kp [4, 7] of the same molecule?
A: Its Kp is 0.641 ± 0.206.

Q: For `C=C[C@H]1C[N@@]2CC[C@H]1C[C@@H]2[C@@H](O)c1ccnc2ccc(OC)cc12` [Quinidine, quinidine], which Kp [4, 6] is on record?
A: The Kp was 0.677 ± 0.27.

Q: And the Kp [4, 7]?
A: The Kp was 1.75 ± 0.64.

Q: For `CC(C)NCC(O)COc1cccc2ccccc12` (stereo not shown) [Propranolol, propranolol], which P app (parental MDCK cell) is on record?
A: Its P app is 11 ×10⁻⁶ cm/s.

Q: What about the “reported plasma CL” value ([3]; ref 18, 19, 20, 21, 22, 23) of the same molecule?
A: Its value is 70 to 90 mL/min/kg.

Q: Which results are given for `Cc1cc(=O)n(-c2ccccc2)n1C` [Antipyrine]?
A: reported plasma CL ([3]; ref 24, 25, 26, 27): 4.80 mL/min/kg; Kp [4, 6]: 0.932 ± 0.178; Kp [4, 7]: 0.771 ± 0.215

Q: With `COc1ccc(CN(CCN(C)C)c2ccccn2)cc1` [Pyrilamine, pyrilamine] as the molecule, how does the Vd [1] read?
A: The Vd was 12.6 ± 1.6 L/kg.

Q: And the clearance [1]?
A: The clearance was 167 ± 24 mL/min/kg.

Q: What about the half-life [1] of the same molecule?
A: The half-life was 2.16 ± 0.63 h.

Q: What about the “reported K puu,brain” value [2] of the same molecule?
A: Its value is 2.50.

Q: With `COc1ccc([C@@H]2Sc3ccccc3N(CCN(C)C)C(=O)[C@@H]2OC(C)=O)cc1` [Diltiazem, diltiazem] as the molecule, how does the “reported plasma CL” value ([3]; ref 18, 19, 20, 21, 22, 23) read?
A: Its value is 90 mL/min/kg.

Q: For `NC(=O)N1c2ccccc2C=Cc2ccccc21` [Carbamazepine, carbamazepine], which P app (parental MDCK cell) is on record?
A: The P app was 27.5 ×10⁻⁶ cm/s.

Q: And the “reported plasma CL” value ([3]; ref 24, 25, 26, 27)?
A: The value was 15.0 mL/min/kg.

Q: And the “N-glucuronide as share of the administered dose” value ([3]; ref 34)?
A: The value was 20%–30%.

Q: What about the Kp [4, 6] of the same molecule?
A: The Kp was 0.913 ± 0.169.

Q: What about the Kp [4, 7] of the same molecule?
A: Its Kp is 1.02 ± 0.27.

Q: For `CC(C)NCC(O)COc1ccc(CC(N)=O)cc1` (stereo not shown) [Atenolol, atenolol], which “share eliminated via the kidneys” value [5] is on record?
A: The value was > 95%.

Q: Which Vd [1] does the source give for `NCC1(CC(=O)O)CCCCC1` [Gabapentin, gabapentin] here?
A: Its Vd is 0.451 ± 0.001 L/kg.

Q: What about the clearance [1] of the same molecule?
A: Its clearance is 1.53 ± 0.31 mL/min/kg.

Q: What about the half-life [1] of the same molecule?
A: Its half-life is 3.58 ± 0.87 h.

Q: And the Kp [4, 6]?
A: Its Kp is 2.23.

Q: And the Kp [4, 7]?
A: Its Kp is 1.39 ± 0.51.

Q: What does the source list for `C[C@H]1O[C@@H](O[C@H]2[C@@H](O)C[C@H](O[C@H]3[C@@H](O)C[C@H](O[C@H]4CC[C@@]5(C)[C@H](CC[C@@H]6[C@@H]5C[C@@H](O)[C@]5(C)[C@@H](C7=CC(=O)OC7)CC[C@]65O)C4)O[C@@H]3C)O[C@@H]2C)C[C@H](O)[C@@H]1O` [Digoxin, digoxin]?
A: reported plasma CL ([3]; ref 20, 26, 36, 37): 17.3 mL/min/kg; reported plasma CL ([3]; ref 24, 25, 26, 27): 17.3 mL/min/kg; non-renal CL (biliary excretion + hepatic metabolism) as share of total CL ([3]; ref 26): 70%–80%; renal CL as share of total CL ([3]; ref 26): 20%–30%
